Test systems include A498 renal; A549 NSCLC; CCRF-CEM leukemia; HCC-2998 colon; HCT-116 colon; HOP-62 NSCLC; MALME-3M melanoma; MDA-N; OVCAR-3 ovarian; OVCAR-4 ovarian; OVCAR-5 ovarian; RPMI-8226 leukemia; SF-268 CNS; SK-MEL-5 melanoma; SK-OV-3 ovarian; SNB-75 CNS; SW-620 colon; TK-10 renal; UACC-257 melanoma; MOLT-4 leukemia.
Holding throughout (test): DTP human tumour cell line panel, 48 h

Each structure is given as a SMILES string.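 Tested at 5 concentrations; 48 h exposure; 96-well plates; endpoints linearly interpolated, else capped at highest concentration. TGI denotes the concentration required for complete inhibition of growth.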

Broadly, the TGI is the concentration giving total growth inhibition. Read a high TGI as less potent growth arrest. Take `Nc1nc(Nc2ccc(Cl)cc2)sc1C(=O)c1cc2ccccc2oc1=O`: the TGI was 93.7 µM in the assay with A498 renal; above 100 µM in the assay with A549 NSCLC; above 100 µM with CCRF-CEM leukemia; above 100 µM in the assay with HCC-2998 colon; above 100 µM in the assay with HCT-116 colon; 42.7 µM in the assay with HOP-62 NSCLC. The TGI in the assay on MALME-3M melanoma was 76.8 µM; in the assay with MDA-N, above 100 µM; in the assay on OVCAR-3 ovarian, 38.6 µM; in the assay with OVCAR-4 ovarian it was above 100 µM; with OVCAR-5 ovarian, above 100 µM; with RPMI-8226 leukemia, above 100 µM. In addition, the TGI in the assay on SF-268 CNS was above 100 µM; with SK-MEL-5 melanoma, above 100 µM; in the assay with SK-OV-3 ovarian, above 100 µM; with SNB-75 CNS it was 68.8 µM; with SW-620 colon, above 100 µM; in the assay with TK-10 renal, above 100 µM. Also, the TGI in the assay on UACC-257 melanoma was above 100 µM.

In the case of `C[C@H](CCc1nc(C#N)c(N)o1)[C@H]1CC[C@H]2[C@@H]3[C@@H](O)CC4C[C@@H](O)CC[C@]4(C)[C@H]3C[C@@H](O)[C@]12C` (some centres not stated), the TGI is above 100 µM in the assay on A498 renal; above 100 µM with A549 NSCLC; above 25.2 µM with CCRF-CEM leukemia; 36.5 µM in the assay with HCC-2998 colon; 50 µM in the assay on HCT-116 colon; above 54.4 µM in the assay on HOP-62 NSCLC. Besides, the concentration for total growth inhibition (TGI) in the assay with MALME-3M melanoma was 29.3 µM; in the assay with MDA-N, 77.8 µM; in the assay on MOLT-4 leukemia, above 59.7 µM; with OVCAR-3 ovarian it was above 56.9 µM; with OVCAR-4 ovarian, above 87.6 µM; in the assay with OVCAR-5 ovarian, 58.3 µM. Besides, the total growth inhibition concentration (TGI) is 28.6 µM with RPMI-8226 leukemia; above 91.5 µM in the assay on SF-268 CNS; 40.9 µM in the assay on SK-MEL-5 melanoma; 73.8 µM with SK-OV-3 ovarian; 54 µM in the assay with SNB-75 CNS; 55 µM in the assay on SW-620 colon. The total growth inhibition concentration (TGI) in the assay with TK-10 renal is above 68.1 µM; in the assay on UACC-257 melanoma, 50.6 µM.

With `CC(=O)OC1CC(OC2C(O)CC(OC3C(O)CC(OC4CCC5(C)C(CCC6C5CC(O)C5(C)C(C7=CC(=O)OC7)CCC65O)C4)OC3C)OC2C)OC(C)C1O` (configuration not stated) (tested in a mixture with another compound), the total growth inhibition concentration (TGI) in the assay on A498 renal is 0.307 µM; in the assay on A549 NSCLC, 0.0259 µM; in the assay on CCRF-CEM leukemia, above 100 µM; in the assay on HCC-2998 colon it was 0.463 µM; with HCT-116 colon, 0.039 µM; in the assay on HOP-62 NSCLC it was 0.152 µM. The TGI in the assay on MALME-3M melanoma came out at 0.0479 µM; in the assay with MDA-N it was 0.147 µM; in the assay on OVCAR-3 ovarian, 0.0507 µM; in the assay on OVCAR-4 ovarian it was 0.0538 µM; in the assay on OVCAR-5 ovarian, 0.12 µM; in the assay with SF-268 CNS, 0.119 µM. In addition, the TGI in the assay on SK-MEL-5 melanoma was 0.0838 µM; in the assay on SK-OV-3 ovarian it was 0.162 µM; in the assay on SNB-75 CNS, 0.191 µM; in the assay with SW-620 colon, 0.268 µM; in the assay with TK-10 renal, 0.114 µM; in the assay on UACC-257 melanoma it was 0.305 µM.

Take `CCCCNc1nc(SC)nc2nc[nH]c12`: the TGI with A498 renal was above 89.2 µM; with A549 NSCLC, above 100 µM; with CCRF-CEM leukemia, above 100 µM; in the assay with HCC-2998 colon, above 100 µM; in the assay with HCT-116 colon, above 100 µM; in the assay with HOP-62 NSCLC, above 100 µM. Also, the TGI with MALME-3M melanoma, with MDA-N, with MOLT-4 leukemia, in the assay with OVCAR-3 ovarian, in the assay on OVCAR-4 ovarian and in the assay with OVCAR-5 ovarian was above 100 µM each time. In addition, the total growth inhibition concentration (TGI) in the assay on RPMI-8226 leukemia was above 100 µM; in the assay with SF-268 CNS, above 100 µM; in the assay with SK-MEL-5 melanoma, above 100 µM; in the assay with SK-OV-3 ovarian it was 41.9 µM; in the assay on SNB-75 CNS, above 100 µM; in the assay with SW-620 colon, above 100 µM. Also, the concentration for total growth inhibition (TGI) in the assay on TK-10 renal and in the assay on UACC-257 melanoma was above 100 µM throughout.

Regarding `N#Cc1c(N2CCOCC2)ncn(-c2ccccc2)c1=O`, the TGI with A498 renal, in the assay with A549 NSCLC, with CCRF-CEM leukemia, with HCC-2998 colon, with HCT-116 colon and in the assay with HOP-62 NSCLC was above 100 µM in each case. In addition, the total growth inhibition concentration (TGI) with MDA-N, in the assay with MOLT-4 leukemia, with OVCAR-3 ovarian, in the assay with OVCAR-5 ovarian, in the assay on RPMI-8226 leukemia and in the assay on SK-MEL-5 melanoma was above 100 µM each time. For the same compound, the TGI in the assay with SK-OV-3 ovarian, with SNB-75 CNS, in the assay with SW-620 colon and with UACC-257 melanoma was above 100 µM throughout.

On to `CC(C)(C)OC(=O)C(C1NC(C(=O)O)C(C)(C)S1)N1C(=O)c2ccccc2C1=O` (configuration not stated), for which the TGI in the assay with A498 renal, with A549 NSCLC, with CCRF-CEM leukemia, in the assay on HCC-2998 colon, in the assay on HCT-116 colon and with HOP-62 NSCLC was above 100 µM throughout. For the same compound, the TGI in the assay on MALME-3M melanoma, with MDA-N, in the assay with MOLT-4 leukemia, in the assay on OVCAR-3 ovarian, in the assay on OVCAR-4 ovarian and in the assay with OVCAR-5 ovarian was above 100 µM throughout. For the same compound, the TGI in the assay on RPMI-8226 leukemia, with SF-268 CNS, in the assay on SK-MEL-5 melanoma, in the assay on SK-OV-3 ovarian, in the assay with SNB-75 CNS and with SW-620 colon was above 100 µM in each case. The total growth inhibition concentration (TGI) in the assay on TK-10 renal and in the assay with UACC-257 melanoma was above 100 µM each time.

In the case of `COc1cc(CNC(=O)CCCCCCCC/C=C/Br)ccc1O`, the TGI with A498 renal, with A549 NSCLC, with CCRF-CEM leukemia, in the assay with HCC-2998 colon, in the assay with HCT-116 colon and in the assay on HOP-62 NSCLC was above 10 µM throughout. In addition, the TGI in the assay on MALME-3M melanoma, with MDA-N, in the assay with MOLT-4 leukemia, in the assay on OVCAR-3 ovarian, with OVCAR-4 ovarian and in the assay on RPMI-8226 leukemia was above 10 µM in each case. Also, the total growth inhibition concentration (TGI) with SF-268 CNS, with SK-MEL-5 melanoma, with SK-OV-3 ovarian, in the assay on SNB-75 CNS, in the assay on SW-620 colon and in the assay with TK-10 renal was above 10 µM each time. The compound also displayed a TGI with UACC-257 melanoma above 10 µM.

The values are drawn from PubChem BioAssay (NCI).
